Like-named read-outs stand apart in the source and are kept apart here.
Columns and labels:
[1] = ester bond, EDCI/HOBt/DIEA, DCM, 12.0 h
[2] = tested on: phosphorylation of ERK, KRAS G12V in SW620; assay: pERK inhibition assay, KRAS G12V; format: cell-based, human; details: Homo sapiens, SW-620, SW620, 4 hours
Procedure, shortened: (§1)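 ERK phosphorylation is measured after 4 h of compound exposure in attached cells, using a colorimetric immunoassay on fixed, permeabilized monolayers. IC50 is derived by 4-parameter sigmoidal fitting.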

[3] = tested on: AGS (ATCC-CRL-1739) cells; assay: Cell viability assay, G12D (AGS); format: cell-based, human; details: Homo sapiens, KRAS cell viability, 72 hrs, Cell Counting Kit-8
Procedure, shortened: (§2)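 Cells seeded at 5,000/well (NCI-H358) or 2,000/well (AGS, SW620), treated next day at 0.5% final DMSO for 72 h. Viability read by CCK-8 (OD450 minus OD650) after 2 h; IC50 from 4-parameter sigmoidal fit.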

[4] = tested on: cryopreserved suspension hepatocytes from human; assay: Human hepatocyte stability assay; format: in vitro ADME; details: for Clearance Category: human hepatocytes; for CL_hep (Human): human hepatocytes 1×10^6 cells/mL, 37° C.
Protocol: The hepatocyte stability assay measures the rate of disappearance of a compound from incubations with cryopreserved suspension hepatocytes from human. Positive controls, including Midazolam, Raloxifene and Dextromethorphan, are included in every experiment. Incubations consist of […] tested compound and suspension of human hepatocytes (1×10^6 cells/mL) in supplemented Williams' E Medium with 10% FBS and 0.5% Penicillin-streptomycin. The hepatocyte suspension was incubated with intermittent shaking 900 rpm at 37° C., in a 5% CO2 incubator. The reaction was stopped by adding methanol containing internal standard (2 μM Tolbutamide) at 2, 10, 20, 40, 60 and 120 minutes after compound addition, depletion of the parent compound was monitored by LC-MS/MS analysis.

[5] = tested on: phosphorylation of ERK, KRAS G12C in NCJ-H358 cells; assay: pERK inhibition assay, KRAS G12C; format: cell-based, human; details: Homo sapiens, 4 hours
Procedure, shortened: as §1

[6] = target: T1, KRAS G12C-BRAF complex (Homo sapiens (Human), UniProt P01116+P62937, G12C); assay: KRAS-BRAF with CYPA (500 nM) interaction assay (TR-FRET), G12C; format: biochemical
[7] = tested on: phosphorylation of ERK, KRAS G12D in AGS cells; assay: pERK inhibition assay, KRAS G12D; format: cell-based, human; details: Homo sapiens, 4 hours
Procedure, shortened: as §1

[8] = tested on: NCI-H358 (ATCC-CRL5807) cells; assay: Cell viability assay, G12C (NCI-H358); format: cell-based, human; details: Homo sapiens; KRAS cell viability, NCI-H358, 72 hrs, Cell Counting Kit-8
Procedure, shortened: as §2

[9] = target: KRAS G12D binding to BRAF (Homo sapiens (Human), UniProt P01116+P62937, G12D); assay: KRAS-BRAF with CYPA (500 nM) interaction assay (TR-FRET), G12D; format: biochemical
[10] = tested on: SW620 (ATCC-CCL-227); assay: Cell viability assay, G12V (SW620); format: cell-based, human; details: Homo sapiens, SW-620; KRAS cell viability, SW620, 72 hrs, Cell Counting Kit-8
Procedure, shortened: as §2

[11] = target: KRAS G12V binding to BRAF (Homo sapiens (Human), UniProt P01116+P62937, G12V); assay: KRAS-BRAF with CYPA (500 nM) interaction assay (TR-FRET), G12V; format: biochemical
Procedure, shortened: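 A TR-FRET assay measured how compound, in the presence of CYPA, disrupts binding of GMPPNP-loaded 6His-KRAS G12V to BRAF. The buffer contained 25 mM HEPES PH=7.4, 0.002% Tween20, 0.1% BSA, 100 mM NaCl, 5 mM MgCl2 and 10 μM GMPPNP. Compounds ran as a 16-point 3-fold dilution series from 10 μM for 3 hours.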

[12] = target: T1, KRAS G12C-BRAF complex; assay: KRAS G12C-BRAF NanoBit assay; format: cell-based; details: HEK293 cells, 3 hours of incubation
Protocol: This assay is to measure the ability of tested compounds in disruption of the KRAS G12C-BRAF complex at the cellular level, we established the NanoBit cellular assay in mammalian HEK293 (ATCC) cells.
HEK293 cells were grown and maintained using DMEM medium (Thermo Fisher Scientific) with 10% fetal bovine serum and 1% penicillin/streptomycin. Both KRAS G12C and BRAF RBD were cloned into the NanoBit vectors ([…] vectors system, Promega) with the orientations SnmBit-KRAS G12C and BRAF RBD-LgBit, respectively, and co-transfected into HEK293 cells. Cells were then selected with 100 μg/mL Hygromycin B (10687010, Thermo Fisher) and Blasticidin (5 μg/mL) for 4 weeks to get the stable cell pool.
On the day of the assay, 75 nL of compound solution was presented in a 384-well assay plate as a 16-point 3-fold dilution starting from a final concentration of 30 μM in DMSO. Then cells were seeded at 10,000 cells/25 μL/well in a 384-well plate. After 3 hours of incubation, 6 μL of volume of Nano-Glo® Live Cell Substrate (Promega) was added into each well. Monitor luminescence using ultra384 model in Envision at 20 minutes. Compounds that facilitate disruption of the KRAS G12C-BRAF RBD complex were identified as those eliciting a decrease of luminescence relative to DMSO control wells.

T1 sequence (P01116-2 other isoform, or with tags, fused parts or gaps G12C): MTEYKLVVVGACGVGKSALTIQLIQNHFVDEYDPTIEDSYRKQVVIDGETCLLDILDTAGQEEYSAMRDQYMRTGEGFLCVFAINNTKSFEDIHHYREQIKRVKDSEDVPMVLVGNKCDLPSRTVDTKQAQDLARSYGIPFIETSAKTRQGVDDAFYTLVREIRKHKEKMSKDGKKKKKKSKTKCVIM
T1 sequence (P62937 whole entry): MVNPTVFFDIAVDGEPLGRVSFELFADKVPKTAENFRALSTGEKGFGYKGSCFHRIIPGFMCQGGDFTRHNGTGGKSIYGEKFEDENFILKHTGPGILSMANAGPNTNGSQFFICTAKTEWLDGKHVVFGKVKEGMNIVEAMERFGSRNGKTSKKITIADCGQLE
Sequence of KRAS G12D binding to BRAF (P01116-2 other isoform, or with tags, fused parts or gaps G12D): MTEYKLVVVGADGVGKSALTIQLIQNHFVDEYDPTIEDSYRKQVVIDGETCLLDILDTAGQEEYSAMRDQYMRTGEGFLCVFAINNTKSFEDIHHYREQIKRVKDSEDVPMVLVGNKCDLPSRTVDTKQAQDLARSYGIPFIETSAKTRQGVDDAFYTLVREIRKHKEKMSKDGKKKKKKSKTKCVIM
Sequence of KRAS G12D binding to BRAF (P62937 whole entry): as the sequence (P62937 whole entry) above
Sequence of KRAS G12V binding to BRAF (P01116-2 other isoform, or with tags, fused parts or gaps G12V): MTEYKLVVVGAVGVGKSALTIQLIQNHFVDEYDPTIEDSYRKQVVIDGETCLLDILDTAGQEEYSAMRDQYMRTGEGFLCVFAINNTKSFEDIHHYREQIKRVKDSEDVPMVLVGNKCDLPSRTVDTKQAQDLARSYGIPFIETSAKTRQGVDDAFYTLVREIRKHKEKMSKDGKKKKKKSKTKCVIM
Sequence of KRAS G12V binding to BRAF (P62937 whole entry): as the sequence (P62937 whole entry) above

IC50 [2] | IC50 [3] | CL_hep (Human) [4] | IC50 [5] | IC50 [6] | IC50 [7] | IC50 [8] | IC50 [9] | IC50 [10] | IC50 [11] | IC50 [12] | Structure (SMILES) | ring closure, yield of all isomers ([1]; from CCn1c(-c2cc(N3CCOCC3)cnc2[C@H](C)OC)c(CC(C)(C)CO)c2cc(-c3csc(C[C@H](NC(=O)OC(C)(C)C)C(=O)N4CCC[C@@H](C(=O)O)N4)n3)c(F)cc21, 11.72 mM, 20.0 °C) | ring closure, yield of all isomers ([1]; from CO[C@@H](C)c1ncc(N2CCN(C(=O)OCc3ccccc3)CC2)cc1-c1c(CC(C)(C)CO)c2cc(-c3cc(C[C@H](NC(=O)OC(C)(C)C)C(=O)N4CCC[C@@H](C(=O)O)N4)cc(O[Si](C(C)C)(C(C)C)C(C)C)c3)c(F)cc2n1CC(F)(F)F, 8.33 mM, 15.0 °C) | Clearance Category [4]
0.026 µM | 2.24 µM | 12.5 mL/min/kg | 0.002 µM |  | 0.048 µM | 0.002 µM |  | 0.042 µM |  |  | CO[C@@H](C)c1ncc(N2CCN(C)CC2)cc1-c1c2c3cc(c(F)cc3n1CC(F)(F)F)-c1csc(n1)C[C@H](NC(=O)[C@H](C(C)C)N1CC[C@]3(CCN(C(=O)[C@H](F)Cl)C3)C1=O)C(=O)N1CCC[C@H](N1)C(=O)OCC(C)(C)C2 (atropisomer, axis not shown; (M)) [Example 5, (2S)-2-[(5S)-7-[(2R)-2-chloro-2-fluoro-acetyl]-1-oxo-2,7-diazaspiro[4.4]nonan-2-yl]-N-[(7S,13S)-24-fluoro-(20M)-20-[2-[(1S)-1-methoxyethyl]-5-(4-methylpiperazin-1-yl)-3-pyridyl]-17,17-dimethyl-8,14-dioxo-21-(2,2,2-trifluoroethyl)-15-oxa-4-thia-9,21,27,28-tetrazapentacyclo[17.5.2.1^2,5.1^9,13.0^22,26]octacosa-1(25),2,5(28),19,22(26),23-hexaen-7-yl]-3-methyl-butanamide] |  |  | medium (16.24>CL_hep (mL/min/kg)>6.96 is medium clearance)
0.024 µM | 0.076 µM | 13.4 mL/min/kg | 0.001 µM |  | 0.021 µM | 0.001 µM |  | 0.021 µM |  |  | CO[C@@H](C)c1ncc(N2CCN(C)CC2)cc1-c1c2c3cc(c(F)cc3n1CC(F)(F)F)-c1csc(n1)C[C@H](NC(=O)[C@H](C(C)C)N1CCCC3(CCN(C(=O)[C@H](F)Cl)CC3)C1=O)C(=O)N1CCC[C@H](N1)C(=O)OCC(C)(C)C2 (atropisomer, axis not shown; (M)) [Example 6, (2S)-2-[9-[(2R)-2-chloro-2-fluoro-acetyl]-1-oxo-2,9-diazaspiro[5.5]undecan-2-yl]-N-[(7S,13S)-24-fluoro-(20M)-20-[2-[(1S)-1-methoxyethyl]-5-(4-methylpiperazin-1-yl)-3-pyridyl]-17,17-dimethyl-8,14-dioxo-21-(2,2,2-trifluoroethyl)-15-oxa-4-thia-9,21,27,28-tetrazapentacyclo[17.5.2.1^2,5.1^9,13.0^22,26]octacosa-1(25),2,5(28),19,22(26),23-hexaen-7-yl]-3-methyl-butanamide] |  |  | medium (16.24>CL_hep (mL/min/kg)>6.96 is medium clearance)
 | 3.24 µM | 10.9 mL/min/kg |  |  |  | < 0.001 µM |  | 0.771 µM |  | 0.032 µM | CO[C@@H](C)c1ncc(N2CCN(C)CC2)cc1-c1c2c3cc(c(F)cc3n1CC(F)(F)F)-c1csc(n1)C[C@H](NC(=O)[C@H](C(C)C)N1CCC3(CCN(C(=O)[C@H](F)Cl)CC3)C1=O)C(=O)N1CCC[C@H](N1)C(=O)OCC(C)(C)C2 (atropisomer, axis not shown; (M)) [Example 15, (2S)-2-[8-[(2R)-2-chloro-2-fluoro-acetyl]-1-oxo-2,8-diazaspiro[4.5]decan-2-yl]-N-[(7S,13S)-24-fluoro-(20M)-20-[2-[(1S)-1-methoxyethyl]-5-(4-methylpiperazin-1-yl)-3-pyridyl]-17,17-dimethyl-8,14-dioxo-21-(2,2,2-trifluoroethyl)-15-oxa-4-thia-9,21,27,28-tetrazapentacyclo[17.5.2.1^2,5.1^9,13.0^22,26]octacosa-1(25),2,5(28),19,22(26),23-hexaen-7-yl]-3-methyl-butanamide] |  |  | medium (16.24>CL_hep (mL/min/kg)>6.96 is medium clearance)

Second part, the molecule before the results:

Structure (SMILES) | IC50 [2] | IC50 [3] | CL_hep (Human) [4] | IC50 [5] | IC50 [6] | IC50 [7] | IC50 [8] | IC50 [9] | IC50 [10] | IC50 [11] | IC50 [12] | ring closure, yield of all isomers ([1]; from CCn1c(-c2cc(N3CCOCC3)cnc2[C@H](C)OC)c(CC(C)(C)CO)c2cc(-c3csc(C[C@H](NC(=O)OC(C)(C)C)C(=O)N4CCC[C@@H](C(=O)O)N4)n3)c(F)cc21, 11.72 mM, 20.0 °C) | ring closure, yield of all isomers ([1]; from CO[C@@H](C)c1ncc(N2CCN(C(=O)OCc3ccccc3)CC2)cc1-c1c(CC(C)(C)CO)c2cc(-c3cc(C[C@H](NC(=O)OC(C)(C)C)C(=O)N4CCC[C@@H](C(=O)O)N4)cc(O[Si](C(C)C)(C(C)C)C(C)C)c3)c(F)cc2n1CC(F)(F)F, 8.33 mM, 15.0 °C) | Clearance Category [4]
CCn1c(-c2cc(N3CCOCC3)cnc2[C@H](C)OC)c2c3cc(c(F)cc31)-c1csc(n1)C[C@H](NC(=O)OC(C)(C)C)C(=O)N1CCC[C@H](N1)C(=O)OCC(C)(C)C2 |  |  |  |  |  |  |  |  |  |  |  | 49.1% |  | 
CO[C@@H](C)c1ncc(N2CCN(C(=O)OCc3ccccc3)CC2)cc1-c1c2c3cc(c(F)cc3n1CC(F)(F)F)-c1cc(cc(O[Si](C(C)C)(C(C)C)C(C)C)c1)C[C@H](NC(=O)OC(C)(C)C)C(=O)N1CCC[C@H](N1)C(=O)OCC(C)(C)C2 |  |  |  |  |  |  |  |  |  |  |  |  | 74.2% | 
CO[C@@H](C)c1ncc(N2CCN(C)CC2)cc1-c1c2c3cc(c(F)cc3n1CC(F)(F)F)-c1csc(n1)C[C@H](NC(=O)[C@H](C(C)C)N1CC[C@@]3(CCN(C(=O)[C@H](F)Cl)C3)C1=O)C(=O)N1CCC[C@H](N1)C(=O)OCC(C)(C)C2 (atropisomer, axis not shown; (M)) [Example 4, (2S)-2-[(5R)-7-[(2R)-2-chloro-2-fluoro-acetyl]-1-oxo-2,7-diazaspiro[4.4]nonan-2-yl]-N-[(7S,13S)-24-fluoro-(20M)-20-[2-[(1S)-1-methoxyethyl]-5-(4-methylpiperazin-1-yl)-3-pyridyl]-17,17-dimethyl-8,14-dioxo-21-(2,2,2-trifluoroethyl)-15-oxa-4-thia-9,21,27,28-tetrazapentacyclo[17.5.2.1^2,5.1^9,13.0^22,26]octacosa-1(25),2,5(28),19,22(26),23-hexaen-7-yl]-3-methyl-butanamide] | 0.048 µM | 1.28 µM | 6.4 mL/min/kg | 0.002 µM | 0.122 µM | 0.11 µM | 0.002 µM | 4.37 µM | 0.635 µM | > 10 µM |  |  |  | low (CL_hep (mL/min/kg)<6.96 is low clearance)
CC(C)[C@@H](C(=O)N[C@H]1Cc2cc(O)cc(c2)-c2ccc3c(C(C)(C)C#N)cn(c3c2)CC(C)(C)COC(=O)[C@@H]2CCCN(N2)C1=O)N1CCC2(CN(C(=O)[C@H](F)Cl)C2)C1=O [RM44-A, reference compound] | > 10 µM |  | <2.4 mL/min/kg | > 10 µM | 0.779 µM | > 10 µM |  | > 10 µM |  | > 10 µM | 1.15 µM |  |  | low (CL_hep (mL/min/kg)<6.96 is low clearance)

Reference: patent publication US20250206761A1, “HALOINDOLE MACROCYCLIC COMPOUNDS FOR THE TREATMENT OF CANCER” (Hoffmann-La Roche Inc., priority 2022, published 2025)
